Laboratory results: publication PMC3890288, “Toxicity of Functional Nano-Micro Zinc Oxide Tetrapods: Impact of Cell Culture Conditions, Cellular Age and Material Properties” (PLoS ONE, 2014)
Read-outs that look alike come from different tables or passages of the source.

What was measured:
[1] = system: normal human dermal fibroblasts (NHDF); assay: MTT cell viability (cytotoxicity) assay on NHDF; format: cell-based; details: NHDF P6–P9, 50000 cells/cm^2, 24 h treatment
Method: Normal human dermal fibroblasts (NHDF) (PromoCell, C12300) were cultured in Quantum 333 (PAA, U15-813) supplemented with 1% (v/v) penicillin/streptomycin (PAA, P11–010). NHDF are human primary cells which were isolated from the dermis of juvenile foreskin or adult skin with different origins (PromoCell). For stock cultures, 750000 cells in 20 ml medium were seeded weekly into a T75 flask (Sarstedt) and kept at 37°C and 5% CO2 in a humidified atmosphere. The medium was changed every two to three days. For sub-culturing, cells were trypsinized by Trypsin/EDTA (PAA, L11-659). Cells were counted under the microscope.
Powder of ZnO-T was scaled and brought for each experiment fresh into dispersion with culture medium at an initial concentration of 10 mg/ml. […]
The MTT assay was used to estimate the viability of cells by measuring the production of formazan mainly through the activity of cellular mitochondrial dehydrogenase. Cell viability was determined accordingly as described in already published paper, [64]. […] Production of formazan by viable cells was estimated after 90 min (37°C, 5% CO2) by measuring the absorbance at a wavelength of 570 nm (photometer 340 ATTC, SLT Lab instruments, Germany). […]
NHDF cells (passage numbers: P10–P14) were seeded into clear flat 96-well microtiter plates (Falcon® 3072) at a cell density of 50.000 cells/cm^2. […] Cell viability was analysed 24 h later. […]

[2] = system: normal human dermal fibroblasts (NHDF); assay: MTT cell viability (cytotoxicity) assay on NHDF; format: cell-based; details: 24 h treatment, expressed as Zn, read-out: ZnCl2 EC50±SE as Zn (converted)

With `[Cl-].[Cl-].[Zn+2]` [ZnCl2] the “EC50±standard error” value [1] was 36 ± 1.4 µg/mL, the EC50 ([1]; expressed as zinc, read-out: EC50±standard error in Zn^2+) was 130 ± 10 µM and the EC50 ([2]; P11–P15, 25000 cells/cm^2) was 100 µM. It also gave an EC50 ([2]; P11–P15, 100000 cells/cm^2) of 130 µM, an EC50 ([2]; P22–P26, 25000 cells/cm^2) of 110 µM and an EC50 ([2]; P22–P26, 100000 cells/cm^2) of 120 µM.
